Assay results as given in the supplement of paper PMC10307832.

Columns and labels:
Assay in all cases: relative viability (nuclei count vs DMSO), 5 days (fraction); higher = more cells survive
[1] = compound: O=C1NC(=O)[C@@H](c2cn3c4c(cccc24)CCC3)[C@@H]1c1c[nH]c2ccccc12 [Tivantinib] + C[C@]1(O)C[C@@H](c2nc(-c3ccc4ccc(-c5ccccc5)nc4c3)c3c(N)nccn32)C1 [Linsitinib] (partner 1 µM)
Procedure, shortened: (§1)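 Lung cancer cell lines in 1536-well plates got either a single drug or a fixed anchor-drug dose together with five library-drug doses (not always all listed) in √10 steps, by pin tool, on the day after seeding. Nuclei were counted after 5 days, and relative viability is the treated-to-vehicle ratio of nuclei counts. Values are medians of duplicate plates.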

[2] = compound: O=C1NC(=O)[C@@H](c2cn3c4c(cccc24)CCC3)[C@@H]1c1c[nH]c2ccccc12 [Tivantinib] + CC(C)C[C@H](NC(=O)[C@H](Cc1ccccc1)NC(=O)c1cnccn1)B(O)O [Bortezomib] (partner 0.002 µM)
Procedure, shortened: as §1

[3] = compound: O=C1NC(=O)[C@@H](c2cn3c4c(cccc24)CCC3)[C@@H]1c1c[nH]c2ccccc12 [Tivantinib] + COc1cc2c(Oc3ccc(NC(=O)C4(C(=O)Nc5ccc(F)cc5)CC4)cc3F)ccnc2cc1OCCCN1CCOCC1 [Foretinib] (partner 0.25 µM)
Procedure, shortened: as §1

[4] = compound: CC1(COc2ccc3c(c2)ncn3-c2ccc3cccc(N4CCC(N)CC4)c3n2)COC1 [Crenolanib] + Cc1cc(Nc2cc(N3CCN(C)CC3)nc(Sc3ccc(NC(=O)C4CC4)cc3)n2)n[nH]1 [Tozasertib] (partner 0.1 µM)
Procedure, shortened: as §1

| Cell Line | relative viability ([1]; first compound 0.01 µM) | relative viability ([1]; first compound 0.03162 µM) | relative viability ([1]; first compound 0.1 µM) | relative viability ([1]; first compound 0.3162 µM) | relative viability ([2]; first compound 0.01 µM) | relative viability ([2]; first compound 0.03162 µM) | relative viability ([2]; first compound 0.1 µM) | relative viability ([2]; first compound 0.3162 µM) | relative viability ([3]; first compound 0.01 µM) | relative viability ([3]; first compound 0.03162 µM) | relative viability ([3]; first compound 0.1 µM) | relative viability ([3]; first compound 0.3162 µM) | relative viability ([4]; first compound 0.01 µM) | relative viability ([4]; first compound 0.03162 µM) | relative viability ([4]; first compound 0.1 µM) | relative viability ([4]; first compound 0.3162 µM) | relative viability ([4]; first compound 1 µM) |
| --- | --- | --- | --- | --- | --- | --- | --- | --- | --- | --- | --- | --- | --- | --- | --- | --- | --- |
| 201T | 1.03 | 1.03 | 0.971 | 0.954 | 1.06 | 1.06 | 1.09 | 1.1 | 1.16 | 1.01 | 1.02 | 0.921 | 1.04 | 1.02 | 0.856 | 0.733 | 0.945 |
| A549 | 0.691 | 0.545 | 0.539 | 0.368 | – | – | – | – | 0.977 | 1.03 | 0.913 | 0.889 | – | – | – | – | – |
| A-427 | 1.12 | 1.12 | 1.12 | 1.05 | 0.997 | 1 | 0.854 | 1.06 | 1.06 | 1.24 | 0.97 | 0.848 | 0.209 | 0.237 | 0.224 | 0.181 | 0.225 |
| ABC-1 | 0.767 | 0.826 | 0.557 | 0.646 | 0.287 | 0.243 | 0.337 | 0.301 | 0.936 | 0.995 | 1.09 | 1.15 | 0.177 | 0.202 | 0.179 | 0.162 | 0.133 |
| BEN | 0.998 | 0.725 | 0.826 | 0.693 | 0.75 | 0.561 | 0.744 | 0.824 | 0.602 | 0.535 | 0.616 | 0.559 | 0.524 | 0.476 | 0.474 | 0.484 | 0.464 |
| CAL-12T | 0.785 | 0.812 | 0.709 | 0.397 | 0.999 | 0.873 | 1.03 | 0.854 | 1.17 | 0.953 | 1.1 | 0.782 | 0.314 | 0.349 | 0.294 | 0.343 | 0.36 |
| COR-L23 | 0.914 | 0.884 | 0.862 | 0.848 | 0.977 | 0.93 | 0.942 | 0.996 | 1.01 | 0.953 | 0.893 | 1.04 | 0.214 | 0.22 | 0.201 | 0.206 | 0.185 |
| COR-L 105 | 0.824 | 0.695 | 0.985 | 0.578 | 0.754 | 0.398 | 0.671 | 0.354 | 0.834 | 0.991 | 0.982 | 0.735 | 0.379 | 0.426 | 0.365 | 0.38 | 0.358 |
| Calu-6 | 1.02 | 1.04 | – | 0.963 | 1.08 | 1.07 | 0.969 | 0.738 | 0.931 | 0.924 | 0.806 | 0.725 | – | – | – | – | – |
| ChaGo-K-1 | – | – | – | – | 0.96 | 0.957 | 0.941 | 0.989 | 0.846 | 0.904 | 0.838 | 0.559 | 0.26 | 0.264 | 0.234 | 0.209 | 0.22 |
| EBC-1 | 0.902 | 0.626 | 0.842 | 0.86 | 0.611 | 0.596 | 0.557 | 0.465 | 0.117 | 0.107 | 0.0799 | 0.0958 | – | – | – | – | – |
| EKVX | 1 | 0.898 | 0.915 | 0.25 | 1.22 | 1 | 0.928 | 0.6 | 0.714 | 0.841 | 0.761 | – | 0.465 | 0.346 | 0.428 | 0.364 | 0.359 |
| EMC-BAC-2 | 0.842 | 0.808 | 0.768 | 0.666 | 1.05 | 0.989 | 1.04 | 0.969 | 1 | 0.962 | 0.487 | 0.72 | 0.312 | 0.251 | 0.322 | 0.239 | 0.309 |
| EPLC-272H | 1.07 | 1.22 | 1.19 | 0.931 | 1.16 | 0.813 | 0.741 | 0.608 | 0.776 | 0.593 | 0.787 | 0.0941 | 0.385 | 0.352 | 0.257 | 0.286 | 0.377 |
| H3255 | 0.95 | 0.864 | 0.943 | – | 0.812 | 0.884 | 0.723 | – | 0.806 | 0.933 | 0.802 | – | 0.672 | 0.609 | 0.579 | 0.671 | 0.611 |
| HARA | 1.05 | 0.882 | 0.882 | 0.303 | 1.16 | 1.04 | 1.07 | 1.06 | 0.864 | 0.795 | 0.935 | 0.643 | 0.138 | 0.131 | 0.145 | 0.116 | 0.121 |
| HCC-15 | 0.89 | 0.796 | 0.857 | 0.911 | 0.949 | 0.995 | 0.943 | 1.04 | 1.04 | 1.01 | 0.991 | 0.986 | 0.397 | 0.313 | 0.444 | 0.378 | 0.427 |
| HCC-44 | 0.707 | 0.589 | 0.745 | 0.641 | 0.87 | 0.975 | 0.883 | 0.915 | – | – | – | – | 1.07 | 0.781 | 0.89 | 0.578 | 0.57 |
| HCC-78 | 0.553 | 0.422 | 0.477 | 0.286 | 0.593 | 0.319 | 0.38 | – | 0.548 | 0.547 | 0.539 | 0.441 | 0.366 | 0.395 | – | 0.406 | 0.368 |
| HCC-366 | 0.634 | 0.543 | 0.542 | 0.585 | 0.996 | 1.16 | 1.03 | 1.03 | 0.89 | 0.852 | 0.929 | 0.912 | 0.167 | 0.148 | 0.154 | 0.144 | 0.108 |
| HCC-827 | 1.03 | 0.991 | 0.96 | 0.953 | 1.02 | 1.12 | 1.03 | 1.11 | 1.01 | 1.12 | 0.957 | 0.485 | 0.422 | 0.417 | 0.421 | 0.389 | 0.431 |
